According to ChEMBL document CHEMBL4765401, “Synthesis, and biological evaluation of 3,6-diaryl-[1,2,4]triazolo[4,3-a]pyridine analogues as new potent tubulin polymerization inhibitors” (Eur J Med Chem, 2020):
Active and inactive are the calls of the source. The calls are words filed in the database; no cut-off is given here.

Legend:
HeLa [1] = experiment: Antiproliferative activity against human HeLa cells measured after 48 hrs by MTT assay; type: functional, cell-based
HEK293 = experiment: Cytotoxicity against HEK293 cells measured after 48 hrs by MTT assay; type: cell-based; settings: Homo sapiens, HEK293, 48 h
A549 = experiment: Antiproliferative activity against human A549 cells measured after 48 hrs by MTT assay; type: functional, cell-based; settings: A549, 48 h
MCF7 = experiment: Antiproliferative activity against human MCF7 cells measured after 48 hrs by MTT assay; type: functional, cell-based; settings: MCF7, 48 h
T47D = experiment: Antiproliferative activity against human T47D cells measured after 48 hrs by MTT assay; type: functional, cell-based
Sus scrofa = organism: Sus scrofa; experiment: Inhibition of pig brain tubulin polymerization at 10 uM measured at 1 min interval for 20 mins by spectrophotometric method relative to control
HeLa [2] = experiment: Cell cycle arrest in human HeLa cells assessed as accumulation at G0/G1 phase at 12 nM measured after 24 hrs by propidium iodide staining based flow cytometry (reference value: 69.08%); type: functional
HeLa [3] = experiment: Cell cycle arrest in human HeLa cells assessed as accumulation at G2M phase at 12 nM measured after 24 hrs by propidium iodide staining based flow cytometry (reference value: 11.14%); type: functional
HeLa [4] = experiment: Cell cycle arrest in human HeLa cells assessed as accumulation at S phase at 12 nM measured after 24 hrs by propidium iodide staining based flow cytometry (reference value: 19.78%); type: functional
HeLa [5] = experiment: Cell cycle arrest in human HeLa cells assessed as accumulation at G0/G1 phase at 24 nM measured after 24 hrs by propidium iodide staining based flow cytometry (reference value: 69.08%); type: functional
HeLa [6] = experiment: Cell cycle arrest in human HeLa cells assessed as accumulation at G2M phase at 24 nM measured after 24 hrs by propidium iodide staining based flow cytometry (reference value: 11.14%); type: functional
HeLa [7] = experiment: Cell cycle arrest in human HeLa cells assessed as accumulation at S phase at 24 nM measured after 24 hrs by propidium iodide staining based flow cytometry (reference value: 19.78%); type: functional
HeLa [8] = experiment: Cell cycle arrest in human HeLa cells assessed as accumulation at G0/G1 phase at 48 nM measured after 24 hrs by propidium iodide staining based flow cytometry (reference value: 69.08%); type: functional
HeLa [9] = experiment: Cell cycle arrest in human HeLa cells assessed as accumulation at G2M phase at 48 nM measured after 24 hrs by propidium iodide staining based flow cytometry (reference value: 11.14%); type: functional
HeLa [10] = experiment: Cell cycle arrest in human HeLa cells assessed as accumulation at S phase at 48 nM measured after 24 hrs by propidium iodide staining based flow cytometry (reference value: 19.78%); type: functional
HeLa [11] = experiment: Cell cycle arrest in human HeLa cells assessed as increase in accumulation at G2M phase measured after 24 hrs by propidium iodide staining based flow cytometry; type: functional
HeLa [12] = experiment: Cell cycle arrest in human HeLa cells assessed as decrease in cyclin B1 expression measured after 24 hrs by Western blot analysis; type: functional, cell-based
HeLa [13] = experiment: Cell cycle arrest in human HeLa cells assessed as decrease in cdc2 expression measured after 24 hrs by Western blot analysis; type: functional, cell-based
HeLa [14] = experiment: Induction of apoptosis in human HeLa cells assessed as viable cells at 12 nM measured after 24 hrs by Annexin V-FITC/propidium iodide staining based flow cytometry (reference value: 93.6%); type: functional; settings: read-out: Activity
HeLa [15] = experiment: Induction of apoptosis in human HeLa cells assessed as early apoptotic cells at 12 nM measured after 24 hrs by Annexin V-FITC/propidium iodide staining based flow cytometry (reference value: 3.97%); type: functional
HeLa [16] = experiment: Induction of apoptosis in human HeLa cells assessed as late apoptotic cells at 12 nM measured after 24 hrs by Annexin V-FITC/propidium iodide staining based flow cytometry (reference value: 2.34%); type: functional
HeLa [17] = experiment: Induction of apoptosis in human HeLa cells assessed as necrotic cells at 12 nM measured after 24 hrs by Annexin V-FITC/propidium iodide staining based flow cytometry (reference value: 0.048%); type: functional
HeLa [18] = experiment: Induction of apoptosis in human HeLa cells assessed as viable cells at 24 nM measured after 24 hrs by Annexin V-FITC/propidium iodide staining based flow cytometry (reference value: 93.6%); type: functional; settings: read-out: Activity
HeLa [19] = experiment: Induction of apoptosis in human HeLa cells assessed as early apoptotic cells at 24 nM measured after 24 hrs by Annexin V-FITC/propidium iodide staining based flow cytometry (reference value: 3.97%); type: functional
HeLa [20] = experiment: Induction of apoptosis in human HeLa cells assessed as late apoptotic cells at 24 nM measured after 24 hrs by Annexin V-FITC/propidium iodide staining based flow cytometry (reference value: 2.34%); type: functional
HeLa [21] = experiment: Induction of apoptosis in human HeLa cells assessed as necrotic cells at 24 nM measured after 24 hrs by Annexin V-FITC/propidium iodide staining based flow cytometry (reference value: 0.048%); type: functional
HeLa [22] = experiment: Induction of apoptosis in human HeLa cells assessed as viable cells at 48 nM measured after 24 hrs by Annexin V-FITC/propidium iodide staining based flow cytometry (reference value: 93.6%); type: functional; settings: read-out: Activity
HeLa [23] = experiment: Induction of apoptosis in human HeLa cells assessed as early apoptotic cells at 48 nM measured after 24 hrs by Annexin V-FITC/propidium iodide staining based flow cytometry (reference value: 3.97%); type: functional
HeLa [24] = experiment: Induction of apoptosis in human HeLa cells assessed as late apoptotic cells at 48 nM measured after 24 hrs by Annexin V-FITC/propidium iodide staining based flow cytometry (reference value: 2.34%); type: functional
HeLa [25] = experiment: Induction of apoptosis in human HeLa cells assessed as necrotic cells at 48 nM measured after 24 hrs by Annexin V-FITC/propidium iodide staining based flow cytometry (reference value: 0.048%); type: functional
HeLa [26] = experiment: Induction of apoptosis in human HeLa cells measured after 24 hrs by Annexin V-FITC/propidium iodide staining based flow cytometry; type: functional, cell-based
HeLa [27] = experiment: Induction of apoptosis in human HeLa cells assessed as increase in PARP cleavage measured after 24 hrs by Western blot analysis; type: functional, cell-based
HeLa [28] = experiment: Induction of apoptosis in human HeLa cells assessed as down regulation of Bcl-2 expression at 12 to 48 nM measured after 24 hrs by Western blot analysis; type: functional, cell-based; settings: dose 12-48 nM
[29] = Inhibition of pig brain tubulin polymerization measured at 1 min interval for 20 mins by spectrophotometric method; set-up: species or system Sus scrofa
HeLa [30] = experiment: Induction of microtubule disruption in human HeLa cells at 12 nM measured after 6 hrs by DAPI staining based immunofluorescence microscopy; type: cell-based

## COc1ccc(-c2nnc3ccc(-c4cc(OC)c(OC)c(OC)c4)cn23)cc1O
HeLa [1]
  IC50: 22.1 µM

## COc1cc(-c2nnc3ccc(-c4ccc(Cl)c(Cl)c4)cn23)cc(OC)c1OC
HeLa [1]
  IC50: 0.347 µM

## COc1ccc(-c2ccc3nnc(-c4cc(OC)c(OC)c(OC)c4)n3c2)cc1[N+](=O)[O-]
HeLa [1]
  IC50: 0.062 µM
HEK293
  IC50: > 100 µM
A549
  IC50: 58.7 µM
MCF7
  IC50: 75.7 µM
T47D
  IC50: > 100 µM
Sus scrofa
  inhibition: 36%

## COc1ccc(-c2ccc3nnc(-c4cc(OC)c(OC)c(OC)c4)n3c2)cc1O
HeLa [1]
  IC50: 0.045 µM
HEK293
  IC50: > 100 µM
A549
  IC50: 17.8 µM
MCF7
  IC50: > 100 µM
T47D
  IC50: > 100 µM
Sus scrofa
  inhibition: 14%

## COc1ccc(-c2ccc3nnc(-c4cc(OC)c(OC)c(OC)c4)n3c2)cc1
HeLa [1]
  IC50: 0.194 µM

## COc1ccc(-c2nnc3ccc(-c4cc(OC)c(OC)c(OC)c4)cn23)cc1N
HeLa [1]
  IC50: 3.97 µM

## COc1ccc(-c2ccc3nnc(-c4cc(OC)c(OC)c(OC)c4)n3c2)cc1N
HeLa [1]
  IC50: 0.012 µM
HEK293
  IC50: > 100 µM
A549
  IC50: 10.4 µM
MCF7
  IC50: 40.4 µM
T47D
  IC50: 27.9 µM
HeLa [2]
  Activity: 64.07%
HeLa [3]
  Activity: 13.9%
HeLa [4]
  Activity: 22.03%
HeLa [5]
  Activity: 51.59%
HeLa [6]
  Activity: 26%
HeLa [7]
  Activity: 22.41%
HeLa [8]
  Activity: 2.13%
HeLa [9]
  Activity: 92.65%
HeLa [10]
  Activity: 5.22%
HeLa [11]
  Activity: Dose-dependent effect
HeLa [12]
  Activity: Dose-dependent effect
HeLa [13]
  Activity: Dose-dependent effect
HeLa [14]
  viability at 0.012 µM: 91.4%
HeLa [15]
  Activity: 5.21%
HeLa [16]
  Activity: 3.23%
HeLa [17]
  Activity: 0.139%
HeLa [18]
  viability at 0.024 µM: 72.8%
HeLa [19]
  Activity: 18.9%
HeLa [20]
  Activity: 7.97%
HeLa [21]
  Activity: 0.373%
HeLa [22]
  viability at 0.048 µM: 45.8%
HeLa [23]
  Activity: 36.4%
HeLa [24]
  Activity: 16.9%
HeLa [25]
  Activity: 0.922%
HeLa [26]
  Activity: Dose-dependent effect
HeLa [27]
  Activity: Dose-dependent effect
HeLa [28]
  Activity: Active
Sus scrofa
  inhibition: 81%
[29]
  IC50: 3.4 µM
HeLa [30]
  Activity: Active

## COc1ccc(-c2ccc3nnc(-c4cc(OC)c(OC)c(OC)c4)n3c2)c(OC)c1
HeLa [1]
  IC50: 7.9 µM

## COc1ccc(-c2nnc3ccc(-c4cc(OC)c(OC)c(OC)c4)cn23)cc1[N+](=O)[O-]
HeLa [1]
  IC50: > 25 µM

## COc1cc(-c2nnc3ccc(-c4ccccc4OC(F)(F)F)cn23)cc(OC)c1OC
HeLa [1]
  IC50: 22.2 µM

## COc1cc(-c2nnc3ccc(-c4ccc(Cl)cc4)cn23)cc(OC)c1OC
HeLa [1]
  IC50: 0.065 µM
HEK293
  IC50: > 100 µM

## COc1cc(C2=NC3=NC(C)=C(C(C)=O)C(c4ccc([N+](=O)[O-])cc4)N3N2)cc(OC)c1OC (configuration not stated)
HeLa [1]
  IC50: 0.75 µM
HEK293
  IC50: 29.9 µM

## COc1ccc(-c2ccc3nnc(-c4cc(OC)c(OC)c(OC)c4)n3c2)cc1OC
HeLa [1]
  IC50: 0.119 µM
A549
  IC50: 87.1 µM
MCF7
  IC50: > 100 µM
T47D
  IC50: > 100 µM
Sus scrofa
  inhibition: 68%
[29]
  IC50: 11.3 µM

## COc1cc(-c2ccc3nnc(-c4ccc(F)cc4)n3c2)cc(OC)c1OC
HeLa [1]
  IC50: > 25 µM

## COc1cc(-c2nnc3ccc(-c4cccnc4OC)cn23)cc(OC)c1OC
HeLa [1]
  IC50: 20.6 µM

## COc1cc(-c2nnc3ccc(-c4ccc(F)cc4)cn23)cc(OC)c1OC
HeLa [1]
  IC50: 0.025 µM
HEK293
  IC50: > 100 µM
A549
  IC50: 78.6 µM
MCF7
  IC50: > 100 µM
T47D
  IC50: 76 µM
Sus scrofa
  inhibition: 18%

## COc1cc(-c2nnc3ccc(-c4ccc(O)cc4)cn23)cc(OC)c1OC
HeLa [1]
  IC50: > 25 µM

## COc1cc(-c2nnc3ccc(-c4ccc(C)cc4)cn23)cc(OC)c1OC
HeLa [1]
  IC50: 0.034 µM
HEK293
  IC50: > 100 µM
A549
  IC50: 6.26 µM
MCF7
  IC50: > 100 µM
T47D
  IC50: > 100 µM
Sus scrofa
  inhibition: 77%
[29]
  IC50: 4.1 µM

## COc1ccc(-c2ccc3nnc(-c4cc(OC)c(OC)c(OC)c4)n3c2)c(O)c1
HeLa [1]
  IC50: > 25 µM

## COc1cc(-c2ccc3nnc(-c4ccc(Cl)c(Cl)c4)n3c2)cc(OC)c1OC
HeLa [1]
  IC50: > 25 µM

## COc1ccc(-c2nnc3ccc(-c4cc(OC)c(OC)c(OC)c4)cn23)cc1
HeLa [1]
  IC50: > 25 µM

## COc1cc(-c2nnc3ccc(-c4ccc([N+](=O)[O-])cc4)cn23)cc(OC)c1OC
HeLa [1]
  IC50: 0.023 µM
HEK293
  IC50: > 100 µM

## COc1cccc(-c2ccc3nnc(-c4cc(OC)c(OC)c(OC)c4)n3c2)c1
HeLa [1]
  IC50: 0.446 µM

## COc1ccc(F)cc1-c1ccc2nnc(-c3cc(OC)c(OC)c(OC)c3)n2c1
HeLa [1]
  IC50: 0.651 µM

## COc1cc(-c2nnc3ccc(-c4ccc5ccccc5c4)cn23)cc(OC)c1OC
HeLa [1]
  IC50: > 25 µM

## COc1cc(-c2ccc3nnc(-c4ccc(Cl)cc4)n3c2)cc(OC)c1OC
HeLa [1]
  IC50: > 25 µM

## COc1cc(F)ccc1-c1ccc2nnc(-c3cc(OC)c(OC)c(OC)c3)n2c1
HeLa [1]
  IC50: 0.153 µM

## COc1cc(-c2ccc3nnc(-c4ccc(C)cc4)n3c2)cc(OC)c1OC
HeLa [1]
  IC50: > 25 µM

## COc1ccccc1-c1ccc2nnc(-c3cc(OC)c(OC)c(OC)c3)n2c1
HeLa [1]
  IC50: 0.084 µM
HEK293
  IC50: > 100 µM
A549
  IC50: 9.28 µM
MCF7
  IC50: 13.7 µM
T47D
  IC50: 31.5 µM
Sus scrofa
  inhibition: 16%

## COc1cc(-c2nnc3ccc(-c4ccc(C(F)(F)F)cc4)cn23)cc(OC)c1OC
HeLa [1]
  IC50: > 25 µM

## COc1ccc(/C=C\c2cc(OC)c(OC)c(OC)c2)cc1O [COMBRETASTATIN A4]
HeLa [1]
  IC50: 0.0047 µM
MCF7
  IC50: 0.17 µM
Sus scrofa
  inhibition: 79%
HeLa [30]
  Activity: Active
